Measured values from patent publication EP2119770B1, “Production of alpha-oxyfunctionalized carbonyl compounds” (priority 2008, dated 2009).

Assays:
Format in all cases: biochemical
Gox0313 = biological target: T1, Gox0313 (Gluconobacter oxydans, UniProt Q5FU50); assay: Enzyme activity assay (rate of NAD(P)H decrease at 340 nm), Gox0313; settings: Tab. 6, Gox0313; substrate reduction, cofactor NADH; 10 mM substrate, pH 7.0, 30 °C
T1 sequence (Q5FU50 1-343): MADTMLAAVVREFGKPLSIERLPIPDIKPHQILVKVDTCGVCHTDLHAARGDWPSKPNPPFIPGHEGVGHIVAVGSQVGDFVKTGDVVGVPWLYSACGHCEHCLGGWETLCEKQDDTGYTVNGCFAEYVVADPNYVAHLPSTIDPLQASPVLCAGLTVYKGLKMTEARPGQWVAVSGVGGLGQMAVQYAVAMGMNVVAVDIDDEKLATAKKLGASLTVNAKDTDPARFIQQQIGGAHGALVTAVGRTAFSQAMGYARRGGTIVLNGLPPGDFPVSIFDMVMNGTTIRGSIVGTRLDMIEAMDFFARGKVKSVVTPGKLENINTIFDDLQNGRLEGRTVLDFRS
Description: (§1) Measurment of enzyme activity: NADPH-dependent alpha-ketocarbonyl reductases were assayed by a routine method used for NAD(P)-linked enzymes by recording the rate of decrease of NADPH at 340 nm (ε = 6.22 mM^-1 x cm^-1)) with substrates at 30 °C. The reaction mixture (1 ml) for reduction of alpha-ketocarbonyl substrates contained 10 mM substrate, 40 mM potassium phosphate buffer pH 7.0, 0.025 mM NAD(P)H , and the enzyme. Reactions were induced by addition of enzyme or substrate. One unit of enzyme activity was defined as the amount of enzyme catalyzing the conversion of 1 µmol of pyridine nucleotide per min at 30 °C.
(§2) NADPH-dependent α-ketocarbonyl reductases were assayed by a routine method used for NAD(P)-linked enzymes by recording the rate of decrease of NADPH at 340 nm (ε = 6.22 mM^-1.cm^-1) with substrates at 30 °C. The reaction mixture (1 ml) for reduction of alpha-ketocarbonyl substrates contained 10 mM substrate, 40 mM potassium phosphate buffer pH 7.0, 0.025 mM NADPH , and the enzyme. Reactions were induced by addition of enzyme or substrate. One unit of enzyme activity was defined as the amount of enzyme catalyzing the conversion of 1 µmol of pyridine nucleotide per min at 30 °C.
(§3) For each enzyme (Gox0313, Gox0502, Gox0644, Gox0646, Gox1615, Gox2107, and Gox2684 respectively), fresh enzyme preparations were used to validate the substrate spectrum and the kinetic activity. […] Purified NAD(P)-dependent oxidoreductases were assayed at 30 °C by a routine method used for NAD(P)-linked enzymes by recording the rate of decrease of NAD(P)H at 340 nm (ε = […]) with substrates capable of reduction reactions. The standard reaction mixture (1 ml) for the reduction reactions of substrates contained 10 mM substrate, 40 mM potassium phosphate buffer (K-phosphate buffer) pH 7.0, 0.05 mM NAD(P)H, and the enzyme unless otherwise noted. Reactions were induced by addition of enzyme or substrate. One unit of enzyme activity was defined as the amount of enzyme catalyzing the conversion of 1 µmol of pyridine nucleotide per min at 30 °C. Measurement of the protein content was performed by the method of Bradford in Anal. Biochem. 72:248-254 (1976). Table 3: Summary of enzymatic activities with α-diketones, α-ketoaldehydes and /or α-ketoesters

Gox1615 = biological target: T2, Gox1615 (Gluconobacter oxydans, UniProt Q5FQJ0); assay: Enzyme activity assay (rate of NAD(P)H decrease at 340 nm), Gox1615; settings: Tab. 5, Gox1615; cofactor NADPH; 10 mM substrate, pH 7.0, 30 °C
T2 sequence (Q5FQJ0 1-332): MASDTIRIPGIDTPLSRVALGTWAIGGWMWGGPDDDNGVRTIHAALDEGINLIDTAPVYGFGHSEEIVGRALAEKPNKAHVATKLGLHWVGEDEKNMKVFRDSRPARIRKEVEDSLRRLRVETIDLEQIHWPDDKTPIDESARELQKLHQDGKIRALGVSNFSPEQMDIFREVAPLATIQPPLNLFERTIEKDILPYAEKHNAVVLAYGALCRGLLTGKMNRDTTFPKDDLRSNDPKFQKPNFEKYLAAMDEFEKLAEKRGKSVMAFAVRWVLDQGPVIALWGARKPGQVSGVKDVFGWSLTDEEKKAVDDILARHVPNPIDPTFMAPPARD
Description: as §1, §2, §3

Gox0644 = Gox0644 (Gluconobacter oxydans, UniProt Q5FT75); assay: Enzyme activity assay (rate of NAD(P)H decrease at 340 nm), Gox0644; settings: for Specific Activity: Tab. 4, Gox0644, cofactor NADPH, 10 mM substrate, pH 7.0, 30 °C; for reduction by Gox0644 (result in words): NADPH
Description: (§4) Reactions were induced by addition of enzyme or substrate. One unit of enzyme activity was defined as the amount of enzyme catalyzing the conversion of 1 µmol of pyridine nucleotide per min at 30 °C.
as §4
For each enzyme (Gox0313, Gox0502, Gox0644, Gox0646, Gox1615, Gox2107, and Gox2684 respectively), fresh enzyme preparations were used to validate the substrate spectrum and the kinetic activity. […] Reactions were induced by addition of enzyme or substrate. One unit of enzyme activity was defined as the amount of enzyme catalyzing the conversion of 1 µmol of pyridine nucleotide per min at 30 °C. […] Table 3: Summary of enzymatic activities with α-diketones, α-ketoaldehydes and /or α-ketoesters

Gox2684 = biological target: T3, Gox2684 (Gluconobacter oxydans, UniProt Q5HXK5); assay: Enzyme activity assay (rate of NAD(P)H decrease at 340 nm), Gox2684; settings: Tab. 8, GOX2684; cofactor NADPH; 10 mM substrate, pH 7.0, 30 °C
T3 sequence (Q5HXK5 1-357): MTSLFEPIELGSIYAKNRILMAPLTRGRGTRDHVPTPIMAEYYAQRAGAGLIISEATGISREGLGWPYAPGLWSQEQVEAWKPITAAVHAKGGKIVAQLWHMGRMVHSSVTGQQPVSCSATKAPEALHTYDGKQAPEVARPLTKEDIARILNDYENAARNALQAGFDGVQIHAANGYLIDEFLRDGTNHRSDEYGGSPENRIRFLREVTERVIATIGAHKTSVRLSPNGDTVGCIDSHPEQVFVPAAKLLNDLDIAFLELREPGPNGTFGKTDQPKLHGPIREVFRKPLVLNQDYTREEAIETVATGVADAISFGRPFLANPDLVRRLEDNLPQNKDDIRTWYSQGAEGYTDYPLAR
Description: as §1, §2, §3

Gox2107 = Gox2107 (Gluconobacter oxydans, UniProt Q5FP53); assay: Enzyme activity assay (rate of NAD(P)H decrease at 340 nm), Gox2107; settings: for Specific Activity: Tab. 7, Gox2107, cofactor NADPH, 10 mM substrate, pH 7.0, 30 °C
Description: as §1, §2, §3

Gox0502 = biological target: T4, Gox0502 (Gluconobacter oxydans, UniProt Q5FTL6); assay: Enzyme activity assay (rate of NAD(P)H decrease at 340 nm), Gox0502; parameters: Strep-tag II (N); made in house; host or cells: E. coli BL21 or E. coli DH5α (pASK-IBA5); settings: Tab. 7, Gox0502; cofactor NADPH; 10 mM substrate, pH 7.0, 30 °C
T4 sequence (Q5FTL6 1-361): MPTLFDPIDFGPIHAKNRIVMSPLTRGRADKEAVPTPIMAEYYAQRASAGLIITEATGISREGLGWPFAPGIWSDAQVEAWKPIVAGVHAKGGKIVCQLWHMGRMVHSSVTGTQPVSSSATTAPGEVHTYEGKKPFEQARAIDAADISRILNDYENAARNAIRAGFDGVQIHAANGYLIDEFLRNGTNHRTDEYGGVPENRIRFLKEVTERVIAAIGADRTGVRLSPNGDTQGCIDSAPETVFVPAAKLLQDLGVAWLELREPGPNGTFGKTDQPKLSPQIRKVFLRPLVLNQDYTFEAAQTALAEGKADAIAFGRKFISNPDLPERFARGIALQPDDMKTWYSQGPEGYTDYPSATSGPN
Description: as §1, §2, §3

Molecule	Specific Activity (Gox0313)	Specific Activity (Gox1615)	further results
CCCCCCCCCCC=O [undecylaldehyde]	8.5 U/mg	7.5 U/mg	–
O=CC=O [glyoxal]	–	5 U/mg	Specific Activity (Gox0644): 1.1 U/mg
CC(C)=O [acetone]	–	–	reduction by Gox0644 (result in words) (Gox0644): not reduced
Cc1ccccc1C=O [o-toluylaldehyde]	–	0.8 U/mg	–
CC(=O)C(C)O (stereo not drawn) [acetoin]	10.5 U/mg	–	reduction by Gox0644 (result in words) (Gox0644): not reduced
O=CC(=O)O [glyoxalate]	–	–	Specific Activity (Gox0644): 1.2 U/mg
glucose	4.7 U/mg	–	–
O=CCCc1ccccc1 [hydrocinnamaldehyde]	32.1 U/mg	–	Specific Activities (Gox2684): 1.9 U/mg
CCCCCCCCCCCC=O [dodecanal]	2.4 U/mg	15.6 U/mg	–
O=CC(O)CO (racemic) [DL-glyceraldehyde]	1.2 U/mg	19 U/mg	–
CCCCCCCC=O [octanal]	1.5 U/mg	5.3 U/mg	–
CC(C)CC=O [isovaleraldehyde]	–	12 U/mg	–
CCC=O [propionaldehyde]	15.0 U/mg	8.4 U/mg	–
NC(=O)C1=CN([C@@H]2O[C@H](COP(=O)(O)OP(=O)(O)OC[C@H]3O[C@@H](n4cnc5c(N)ncnc54)[C@H](O)[C@@H]3O)[C@@H](O)[C@H]2O)C=CC1 [NADH]	–	–	decrease in activity with NADH (Gox2107; Gox2107, NADH compared with the preferred NADPH (data not shown)): 7.5 fold
CCCCCCCCCC=O [decanal]	18.8 U/mg	10.5 U/mg	–
CCCCCC=O [hexanal]	6.0 U/mg	10.3 U/mg	–
CC=O [acetaldehyde]	61.0 U/mg	–	–
CC(=O)C=CC(C)C [5-methyl-3-hexen-2-one]	–	0.3 U/mg	–
C=CC(=O)CC [1-pentene-3-one]	–	–	Specific Activity (Gox2107): 14.0 U/mg; Specific Activity (Gox0502): 6.1 U/mg

Molecule	Specific Activity (Gox0313)	Specific Activity (Gox1615)	further results
O=Cc1ccccc1 [benzaldehyde]	9.4 U/mg	12.2 U/mg	–
mannose	9.7 U/mg	–	–
N#CC1=C(C#N)C(=O)C(Cl)=C(Cl)C1=O [DDQ]	–	–	Specific Activity (Gox2107): 26.5 U/mg; Specific Activity (Gox0502): < 0.1 U/mg
CCCCC=O [valeraldehyde]	8.9 U/mg	15.1 U/mg	–
O=CCO [glycolaldehyde]	37.5 U/mg	4.1 U/mg	–
O=CC=Cc1ccccc1 [cinnamaldehyde]	7.0 U/mg	–	Specific Activities (Gox2684): 0.4 U/mg
CCCCCCC=O [heptanal]	8.6 U/mg	15.5 U/mg	–
CCCC(C)C=O (stereo not drawn) [2-methylvaleraldehyde]	–	13.4 U/mg	–
CCCC=O [butyraldehyde]	8.5 U/mg	14 U/mg	–
O=C1C=CCCC1 [2-cyclohexene-1-one]	–	–	Specific Activity (Gox2107): 3.3 U/mg; Specific Activity (Gox0502): 9.8 U/mg
CC1=CC(=O)c2ccccc2C1=O [2-methyl-1,4-naphthoquinone]	–	–	Specific Activity (Gox2107): 124.1 U/mg; Specific Activity (Gox0502): 10 U/mg; Specific Activities (Gox2684): 6.8 U/mg
Cc1cccc(C=O)c1 [m-toluylaldehyde]	–	1.5 U/mg	–
Cc1ccc(C=O)cc1 [p-toluylaldehyde]	3.3 U/mg	2.3 U/mg	–
O=C(C(=O)c1ccccc1)c1ccccc1 [benzil]	0.1 U/mg	–	Specific Activity (Gox0644): 14.0 U/mg
O=CCc1ccccc1 [phenylacetaldehyde]	–	6.5 U/mg	–
C=C(C)[C@H]1CC=C(C)C(=O)C1 [(+)-Carvone]	–	–	Specific Activity (Gox2107): < 0.1 U/mg; Specific Activity (Gox0502): 8.0 U/mg
CCCCCCCCC=O [Nonal]	4.4 U/mg	9.3 U/mg	–
CC(=O)CC(C)=O [acetylacetone]	–	–	reduction by Gox0644 (result in words) (Gox0644): not reduced
O=CCCCC=O [glutaraldehyde]	–	13.5 U/mg	–
